pEC50, pIC50: −log10 of the molar value.
Tests used:
hEP2 [1] = target: T1, hEP2 (Homo sapiens (Human), UniProt P43116); assay: Radioligand binding ([3H]PGE2), HEK-293 cell membranes expressing EP2 receptor; settings: top number in Table 2
Description: (§1) HEK-293 cells stably expressing the human or feline FP receptor, or EP1, EP2, EP3, or EP4 receptors were washed with TME buffer, scraped from the bottom of the flasks, and homogenized for 30 sec using a Brinkman PT 10/35 polytron. TME buffer was added to achieve a final 40 ml volume in the centrifuge tubes (the composition of TME is 100 mM TRIS base, 20 mM MgCl2, […]; 10N HCl is added to achieve a pH of 7.4).
(§2) The cell homogenate was centrifuged at 19000 r.p.m. for 20 min at 4° C. using a Beckman Ti-60 rotor. The resultant pellet was resuspended in TME buffer to give a final 1 mg/ml protein concentration, as determined by Biorad assay. Radioligand binding competition assays vs. [^3H-]17-phenyl PGF2α, (5 nM) were performed in a 100 μl volume for 60 min. Binding reactions were started by adding plasma membrane fraction. The reaction was terminated by the addition of 4 ml ice-cold TRIS-HCl buffer and rapid filtration through glass fiber GF/B filters using a Brandel cell harvester. The filters were washed 3 times with ice-cold buffer and oven dried for one hour. Non-specific binding was determined with 10 uM unlabeled 17-phenyl PGF2α.
(§3) [^3H-] PGE2 (5 nM; specific activity 180 Ci mmol) was used as the radioligand for EP receptors. Binding studies employing EP1, EP2, EP3, EP4 were performed in duplicate in at least three separate experiments. A 200 μl assay volume was used. Incubations were for 60 min at 25° C. and were terminated by the addition of 4 ml of ice-cold 50 mM TRIS-HCl, followed by rapid filtration through Whatman GF/B filters and three additional 4 ml washes in a cell harvester (Brandel). Non-specific binding determined with 10^−5M of unlabeled PGE2.

hEP4 [2] = target: T2, hEP4 (Homo sapiens (Human), UniProt P35408); assay: Radioligand binding ([3H]PGE2), HEK-293 cell membranes expressing EP4 receptor; settings: top number in Table 2
Description: as §1, §2, §3

hEP4 [3] = target: T2, hEP4; assay: FLIPR calcium signal, HEK-293(EBNA) cells expressing hEP4/Gqs5; assay type: cell-based; settings: bottom number in Table 2, read-out: hEP4 functional EC50
Description: (§4) HEK-293(EBNA) cells, stably expressing one type or subtype of recombinant human prostaglandin receptors (prostaglandin receptors expressed: hDP/Gqs5; hEP1; hEP2/Gqs5; hEP3A/Gqi5; hEP4/Gqs5; hFP; hIP; hTP), were cultured in 100 mm culture dishes in high-glucose DMEM medium containing 10% fetal bovine serum, 2 mM 1-glutamine, 250 μg/ml geneticin (G418) and 200 μg/ml hygromycin B as selection markers, and 100 units/ml penicillin G, 100 μg/m streptomycin and 0.25 μg/m amphotericin B.
(§5) Cells were seeded at a density of 5×10^4 cells per well in Biocoat® Poly-D-lysine-coated black-wall, clear-bottom 96-well plates (Becton-Dickinson) and allowed to attach overnight in an incubator at 37° C. Cells were then washed two times with HBSS-HEPES buffer (Hanks Balanced Salt Solution without bicarbonate and phenol red, 20 mM HEPES, pH 7.4) using a Denley Cellwash plate washer (Labsystems). After 45 minutes of dye-loading in the dark, using the calcium-sensitive dye Fluo-4 AM at a final concentration of 2 μM, plates were washed four times with HBSS-HEPES buffer to remove excess dye leaving 100 μl in each well. Plates were re-equilibrated to 37° C. for a few minutes.
Cells were excited with an Argon laser at 488 nm, and emission was measured through a 510-570 nm bandwidth emission filter (FLIPR™, Molecular Devices, Sunnyvale, Calif.). […] The peak increase in fluorescence intensity was recorded for each well. On each plate, four wells each served as negative (HBSS-HEPES buffer) and positive controls (standard agonists: BW245C (hDP); PGE2 (hEP1; hEP2/Gqs5; hEP3A/Gqi5; hEP4/Gqs5); PGF2 (hFP); carbacyclin (hIP); U-46619 (hTP), depending on receptor). The peak fluorescence change in each drug-containing well was then expressed relative to the controls.
(§6) Compounds were tested in a high-throughput (HTS) or concentration-response (CoRe) format. In the HTS format, forty-four compounds per plate were examined in duplicates at a concentration of 10^−5 M. To generate concentration-response curves, four compounds per plate were tested in duplicates in a concentration range between 10^−5 and 10^−11 M. The duplicate values were averaged.

hEP3A = hEP3A (Homo sapiens (Human), UniProt P43115); assay: FLIPR calcium signal, HEK-293(EBNA) cells expressing hEP3A/Gqi5; assay type: cell-based; settings: for pEC50: bottom number in Table 2, read-out: hEP3A functional EC50
Description: as §4, §5
Cells were excited with an Argon laser at 488 nm, and emission was measured through a 510-570 nm bandwidth emission filter (FLIPR™, Molecular Devices, Sunnyvale, Calif.). Drug solution was added in a 50 μl volume to each well to give the desired final concentration. The peak increase in fluorescence intensity was recorded for each well. On each plate, four wells each served as negative (HBSS-HEPES buffer) and positive controls (standard agonists: BW245C (hDP); PGE2 (hEP1; hEP2/Gqs5; hEP3A/Gqi5; hEP4/Gqs5); PGF2 (hFP); carbacyclin (hIP); U-46619 (hTP), depending on receptor). The peak fluorescence change in each drug-containing well was then expressed relative to the controls.
as §6, with “averaged. In either, HTS or CoRe format each compound was tested on at least 3 separate plates using cells from different passages to give an n≧3.” for “averaged.”

hEP1 = hEP1 (Homo sapiens (Human), UniProt P34995); assay: Radioligand binding ([3H]PGE2), HEK-293 cell membranes expressing EP1 receptor; settings: top number in Table 2
Description: as §1, §2, §3

hIP = hIP (Homo sapiens (Human), UniProt P43119); assay: Table 2 top number, hIP (radioligand binding per footnote); settings: top number in Table 2
hEP3D = hEP3D (Homo sapiens (Human), UniProt P43115); assay: Radioligand binding ([3H]PGE2), HEK-293 cell membranes expressing EP3 receptor; settings: top number in Table 2
Description: as §1, §2, §3

hTP = hTP (Homo sapiens (Human), UniProt P21731); assay: Table 2 top number, hTP (radioligand binding per footnote); settings: top number in Table 2
hDP = hDP (Homo sapiens (Human), UniProt Q13258); assay: Table 2 top number, hDP (radioligand binding per footnote); settings: top number in Table 2
hEP2 [4] = target: T1, hEP2; assay: FLIPR calcium signal, HEK-293(EBNA) cells expressing hEP2/Gqs5; assay type: cell-based; settings: bottom number in Table 2, read-out: hEP2 functional EC50
Description: as §4
Cells were seeded at a density of 5×10^4 cells per well in Biocoat® Poly-D-lysine-coated black-wall, clear-bottom 96-well plates (Becton-Dickinson) and allowed to attach overnight in an incubator at 37° C. Cells were then washed two times with HBSS-HEPES buffer (Hanks Balanced Salt Solution without bicarbonate and phenol red, 20 mM HEPES, pH 7.4) using a Denley Cellwash plate washer (Labsystems). […]
Cells were excited with an Argon laser at 488 nm, and emission was measured through a 510-570 nm bandwidth emission filter (FLIPR™, Molecular Devices, Sunnyvale, Calif.). […] The peak increase in fluorescence intensity was recorded for each well. […] The peak fluorescence change in each drug-containing well was then expressed relative to the controls. […]

T2 sequence (P35408 whole entry, looked up): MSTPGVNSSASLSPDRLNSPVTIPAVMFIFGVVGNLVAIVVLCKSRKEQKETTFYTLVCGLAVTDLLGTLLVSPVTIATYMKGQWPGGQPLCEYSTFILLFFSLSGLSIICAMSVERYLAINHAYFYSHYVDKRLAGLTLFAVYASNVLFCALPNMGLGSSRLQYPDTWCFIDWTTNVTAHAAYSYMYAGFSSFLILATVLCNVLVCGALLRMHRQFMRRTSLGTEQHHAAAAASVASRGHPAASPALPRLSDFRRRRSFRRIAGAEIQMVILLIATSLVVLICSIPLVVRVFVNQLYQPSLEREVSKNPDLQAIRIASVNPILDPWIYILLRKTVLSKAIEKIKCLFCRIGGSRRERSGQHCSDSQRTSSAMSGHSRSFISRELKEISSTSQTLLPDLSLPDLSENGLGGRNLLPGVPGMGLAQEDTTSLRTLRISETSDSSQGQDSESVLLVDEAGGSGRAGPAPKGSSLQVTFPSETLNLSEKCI
hTP, sequence (P21731 whole entry): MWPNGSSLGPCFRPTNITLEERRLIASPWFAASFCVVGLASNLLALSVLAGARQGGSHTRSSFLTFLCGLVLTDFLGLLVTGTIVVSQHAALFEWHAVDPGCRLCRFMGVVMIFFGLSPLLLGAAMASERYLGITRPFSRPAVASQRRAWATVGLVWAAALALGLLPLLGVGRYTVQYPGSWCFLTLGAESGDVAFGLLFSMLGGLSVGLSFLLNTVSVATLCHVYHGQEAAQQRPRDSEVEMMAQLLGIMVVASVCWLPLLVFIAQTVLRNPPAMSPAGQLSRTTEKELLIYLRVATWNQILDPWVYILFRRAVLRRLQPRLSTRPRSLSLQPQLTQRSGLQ
hEP3D, sequence (P43115 other isoform, or with tags, fused parts or gaps): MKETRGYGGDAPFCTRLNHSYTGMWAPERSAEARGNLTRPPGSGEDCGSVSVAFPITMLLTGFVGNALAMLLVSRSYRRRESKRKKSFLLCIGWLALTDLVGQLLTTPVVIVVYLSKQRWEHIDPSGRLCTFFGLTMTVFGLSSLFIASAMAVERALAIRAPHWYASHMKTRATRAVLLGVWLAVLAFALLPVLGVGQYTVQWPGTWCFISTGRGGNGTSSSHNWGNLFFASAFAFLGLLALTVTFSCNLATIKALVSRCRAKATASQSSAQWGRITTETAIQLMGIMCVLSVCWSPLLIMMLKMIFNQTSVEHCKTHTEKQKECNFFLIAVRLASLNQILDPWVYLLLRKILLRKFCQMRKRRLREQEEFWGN
hEP1, sequence (P34995 whole entry): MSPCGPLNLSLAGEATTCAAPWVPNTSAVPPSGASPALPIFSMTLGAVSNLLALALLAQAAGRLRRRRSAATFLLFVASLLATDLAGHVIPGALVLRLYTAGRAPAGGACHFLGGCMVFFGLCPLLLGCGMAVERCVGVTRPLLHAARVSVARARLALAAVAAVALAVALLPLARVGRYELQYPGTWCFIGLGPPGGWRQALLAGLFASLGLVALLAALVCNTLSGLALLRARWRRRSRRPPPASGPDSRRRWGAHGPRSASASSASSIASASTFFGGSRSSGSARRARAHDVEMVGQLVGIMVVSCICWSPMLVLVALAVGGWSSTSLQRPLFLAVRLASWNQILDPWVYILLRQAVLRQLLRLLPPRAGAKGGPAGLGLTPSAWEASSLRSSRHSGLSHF
T1 sequence (P43116 whole entry): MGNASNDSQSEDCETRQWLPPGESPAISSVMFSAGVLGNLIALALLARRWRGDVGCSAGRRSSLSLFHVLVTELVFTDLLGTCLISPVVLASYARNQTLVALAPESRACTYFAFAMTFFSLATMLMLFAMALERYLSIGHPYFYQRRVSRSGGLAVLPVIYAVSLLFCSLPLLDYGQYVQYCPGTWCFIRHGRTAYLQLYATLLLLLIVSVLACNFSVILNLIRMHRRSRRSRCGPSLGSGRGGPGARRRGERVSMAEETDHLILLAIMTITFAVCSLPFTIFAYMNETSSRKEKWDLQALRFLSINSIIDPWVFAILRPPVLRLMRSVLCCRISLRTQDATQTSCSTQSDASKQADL
hIP, sequence (P43119 whole entry): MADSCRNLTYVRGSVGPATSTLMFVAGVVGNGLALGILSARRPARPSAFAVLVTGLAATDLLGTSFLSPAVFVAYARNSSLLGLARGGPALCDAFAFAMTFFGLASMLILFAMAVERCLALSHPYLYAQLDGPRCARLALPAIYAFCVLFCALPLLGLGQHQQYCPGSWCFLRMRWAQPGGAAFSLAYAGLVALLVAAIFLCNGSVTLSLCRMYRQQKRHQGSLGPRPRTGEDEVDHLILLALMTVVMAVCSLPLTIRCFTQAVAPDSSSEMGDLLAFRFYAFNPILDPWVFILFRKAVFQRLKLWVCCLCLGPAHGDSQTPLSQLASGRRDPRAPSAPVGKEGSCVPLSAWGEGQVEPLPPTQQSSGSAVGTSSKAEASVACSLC
hEP3A, sequence (P43115 whole entry): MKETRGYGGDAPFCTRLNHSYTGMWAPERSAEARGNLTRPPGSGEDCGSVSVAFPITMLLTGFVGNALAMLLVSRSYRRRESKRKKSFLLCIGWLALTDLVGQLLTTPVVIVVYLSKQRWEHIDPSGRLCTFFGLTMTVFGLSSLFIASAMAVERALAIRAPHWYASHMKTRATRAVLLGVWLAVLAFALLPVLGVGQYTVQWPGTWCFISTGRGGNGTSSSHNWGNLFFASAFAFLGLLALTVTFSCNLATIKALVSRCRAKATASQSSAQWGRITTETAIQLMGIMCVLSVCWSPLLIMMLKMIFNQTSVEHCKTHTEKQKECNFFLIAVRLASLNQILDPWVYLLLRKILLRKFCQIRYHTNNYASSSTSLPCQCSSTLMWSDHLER
hDP, sequence (Q13258 whole entry): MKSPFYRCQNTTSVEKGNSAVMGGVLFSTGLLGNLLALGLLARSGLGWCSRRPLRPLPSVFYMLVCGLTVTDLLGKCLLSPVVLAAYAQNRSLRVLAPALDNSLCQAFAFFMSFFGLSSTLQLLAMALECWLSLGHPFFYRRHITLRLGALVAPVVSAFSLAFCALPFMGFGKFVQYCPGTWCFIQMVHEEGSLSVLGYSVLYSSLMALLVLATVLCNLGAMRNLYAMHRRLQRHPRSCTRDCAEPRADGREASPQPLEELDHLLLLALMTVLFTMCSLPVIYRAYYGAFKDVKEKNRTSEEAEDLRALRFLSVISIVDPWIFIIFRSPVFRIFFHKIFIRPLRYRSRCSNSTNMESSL

Row | SMILES | hEP2 radioligand binding IC50 (hEP2 [1]) | pIC50 (hEP4 [2]) | pEC50 (hEP4 [3]) | pEC50 (hEP3A) | pIC50 (hEP1) | pIC50 (hEP3D) | pIC50 (hTP) | other results
1 | COC(=O)CSCCCS[C@H]1C(=O)C(C)(C)[C@@H](O)[C@@H]1/C=C/C(O)CCc1sc2ccccc2c1Cl (single isomer, unassigned) [Compound 21] | > 10000 nM | 7.01 | – | – | – | – | – | –
2 | CCCCC[C@H](O)/C=C/[C@@H]1[C@@H](CC#CCCCC(=O)O)C(=O)C(C)(C)[C@H]1O [Compound 43, 7-[(1R,4S,5R)-4-Hydroxy-5-((E)-(S)-3-hydroxy-oct-1-enyl)-3,3-dimethyl-2-oxo-cyclopentyl]-hept-5-ynoic acid] | – | 6.40 | 7.20 | 7.96 | < 5.00 | 5.77 | 7.74 | pIC50 (hIP): 5.40
3 | CC1(C)C(=O)[C@H](C/C=C\CCCC(=O)O)[C@@H](/C=C/C(O)Cc2ccccc2)[C@@H]1O (single isomer, unassigned) [Compound 46] | > 10000 nM | 8.40 | 9.40 | 6.23 | 6.54 | – | – | hEP3D radioligand binding IC50 (hEP3D): > 10000 nM
4 | CC1(C)C(=O)[C@H](C/C=C\CCCC(=O)O)[C@@H](/C=C/C(O)CCc2sc3ccccc3c2Cl)[C@@H]1O (single isomer, unassigned) [Compound 41] | > 10000 nM | 7.70 | – | – | – | – | – | hTP radioligand binding IC50 (hTP): > 10000 nM
5 | CC1(C)C(=O)[C@H](CC#CCCCC(=O)O)[C@@H](/C=C/C(O)CCc2sc3ccccc3c2Cl)[C@@H]1O (single isomer, unassigned) [Compound 37] | – | 7.00 | 7.49 | – | – | – | – | hIP radioligand binding IC50 (hIP): > 10000 nM
6 | CCCCC[C@H](O)/C=C/[C@@H]1[C@@H](C/C=C\CCCC(=O)O)C(=O)C(C)(C)[C@H]1O [Compound 44, (Z)-7-[(1R,4S,5R)-4-Hydroxy-5-((E)-(S)-3-hydroxy-oct-1-enyl)-3,3-dimethyl-2-oxo-cyclopentyl]-hept-5-enoic acid] | – | 8.26 | 9.70 | 8.34 | 6.11 | 6.52 | 7.74 | hDP radioligand binding IC50 (hDP): > 10000 nM; pIC50 (hEP2 [1]): 5.82; pIC50 (hIP): 6.55; pEC50 (hEP2 [4]): 6.03
7 | COC(=O)CCC/C=C\C[C@H]1C(=O)C(C)(C)[C@@H](O)[C@@H]1/C=C/C(O)CCc1ccccc1 (single isomer, unassigned) [Compound 50] | – | 5.62 | 5.50 | – | 6.20 | 5.18 | – | hEP3A functional EC50 (hEP3A; bottom number in Table 2): > 10000 nM; hTP radioligand binding IC50 (hTP): > 10000 nM
8 | CC1(C)C(=O)[C@H](CC#CCCCC(=O)O)[C@@H](/C=C/C(O)CCc2sc3ccccc3c2Cl)[C@@H]1O (single isomer, unassigned) [Compound 36] | – | 6.70 | 7.18 | – | – | – | – | hIP radioligand binding IC50 (hIP): > 10000 nM
9 | CCCCC[C@H](O)/C=C/[C@@H]1[C@@H](C/C=C\CCCC(=O)OC)C(=O)C(C)(C)[C@H]1O [Compound 45, (Z)-7-[(1R,4S,5R)-4-Hydroxy-5-((E)-(S)-3-hydroxy-oct-1-enyl)-3,3-dimethyl-2-oxo-cyclopentyl]-hept-5-enoic acid methyl ester] | – | 6.40 | 7.29 | 6.27 | – | < 5.00 | 6.20 | –

From US9156810B2, “Treatment of inflammatory bowel disease” (ALLERGAN, INC., priority 2003, dated 2015)
